# In patent publication US6387956B1, “Methods of treating obsessive-compulsive spectrum disorders” (University of Cincinnati, priority 1999, dated 2002):
# Structures can show the parent of a compound that is named as a salt.
# Key:
# Tourette's syndrome = test: Example 4: case of a patient with major depressant disorder and Tourette's syndrome, motor tics; type: in vivo; conditions: 50 mg twice a day added to bupropion
# Procedure: A patient with a history of recurrent major depressant disorder was treated with extended release bupropion (1-(3-chlorophenyl)-2-[(1,1-dimethylethyl)amino]-1-[…]), at a total dose of 300 mg per day (200 mg in the morning and 100 mg in the evening). […] The patient also reported a history of purging. […] The patient was diagnosed as having major depressant disorder and Tourette's syndrome.
# The bupropion was supplemented with 50 mg twice a day of tramadol. […] The patient estimated that the number of tics was reduced by about two-thirds after starting the tramadol. The patient's bupropion dose was increased to 400 mg per day (200 mg twice a day), while the tramadol dose was maintained at 50 mg twice a day. The patient was informed the tramadol dose could be increased to 50 mg four times a day if the number of tics increased.
# [1] = Weight and appetite during the six week tramadol hydrochloride study; type: in vivo, patients
# Procedure: (§1) Exclusion criteria for the study included a life-time DSM-IV diagnosis of mania, psychotic disorder, alcohol or substance abuse or dependence, prior history of hypersensitivity to tramadol or any other opioid, a history of seizures, including childhood febrile seizures, and any clinically relevant abnormal laboratory results or clinically unstable medical conditions. […] The patients were not concurrently receiving behavioral therapy.
# (§2) Patients were evaluated using the Yale-Brown Obsessive Compulsive Scale (Y-BOCS), the Hamilton Rating Scale for Depression (HAM-D) and the Clinical Global Impression Scale (CGI). Subsequent to screening, the individuals received a six week treatment with tramadol hydrochloride. The tramadol hydrochloride was initially administered at 50 mg four times a day for the first week. If there was less than a 20% drop in baseline Y-BOCS scores by the end of week one, the tramadol hydrochloride dose was advanced slowly over 1 to 2 weeks to a maximum of 400 mg per day in 3 to 5 divided doses. Weekly measurements with the Y-BOCS, HAM-D and CGI were used to assess responses. Y-BOCS and HAM-D values at the start and end of the trial were compared using the Wilcoxon signed-ranks test.
# Weekly mean ± standard deviation of weight and tramadol doses for the patients are set forth below in Table 2, while weights and tramadol hydrochloride doses for individual patients are set forth in Table 3. For data analysis purposes, when an individual's weight was not available, the weight from the previous week was carried forward.
# [2] = system: SRI-treatment refractory OCD; test: Six week tramadol hydrochloride treatment of SRI-refractory OCD patients, assessed with Y-BOCS, HAM-D and CGI; type: in vivo
# Procedure: as §1, §2
# The mean ± standard deviation dose of tramadol hydrochloride for the six patients completing at least two weeks was 254±119 mg/day (divided into from 3 to 5 doses). The mean ± standard deviation of baseline and endpoint Y-BOCS, HAM-D and severity of illness CGI and global improvement CGI are set forth below in Table 1. […] The scores for the patient who dropped out in week 6 were carried forward from week 5.
# OCD = test: Example 2: case of a person with OCD, Y-BOCS; type: in vivo, patient
# Procedure: The tramadol hydrochloride therapy was then supplemented with 20 mg per day of fluoxetine, and three weeks later the fluoxetine was increased to 40 mg daily.
# [3] = Example 3: weight of a OCD patient during 11 months of tramadol hydrochloride; type: in vivo
# Procedure: A OCD patient was treated with tramadol hydrochloride for a total of 11 months, during the last month of the study the patient was titrated off the tramadol hydrochloride. The only additional prescribed medication was alendronic acid ((4-amino-1-hydroxybutylidene)bisphosphonic acid) started at week 6 for osteoporosis unrelated to tramadol use. (The patient has a family history of osteoporosis and previous steroid use.) The patient's weight and tramadol hydrochloride doses are set forth in Table 4 below.
# [4] = during tramadol hydrochloride treatment
compound,measurement,setting,value
"COc1cccc([C@]2(O)CCCC[C@H]2CN(C)C)c1 (racemic) [tramadol, (±)cis-2-[(dimethylamino)methyl]-1(3-methoxyphenyl) cyclohexanol]",side effects,Tourette's syndrome,without any side effects
"COc1cccc(C2(O)CCCCC2CN(C)C)c1 (mixture of isomers) [tramadol hydrochloride, (±) cis-2-[(dimethylamino)methyl]-1(3-methoxyphenyl)cyclohexanolhydrochloride]","Weight, mean ± SD","[1]; Week 1, seven patients, baseline 173.36 ± 29.58",172.46 ± 29.9 lbs
same,"Weight, mean ± SD","[1]; Week 2, seven patients",170.39 ± 29.1 lbs
same,"Weight, mean ± SD","[1]; Week 3, seven patients",170.5 ± 29.64 lbs
same,"Weight, mean ± SD","[1]; Week 4, seven patients",169.46 ± 28.62 lbs
same,"Weight, mean ± SD","[1]; Week 5, seven patients",169.1 ± 28 lbs
same,"Weight, mean ± SD","[1]; Week 6, seven patients",167.5 ± 26.54 lbs
same,weight lost on average,"[1]; seven patients, six week treatment",5.86 pounds
same,"appetite, patient reported",[1]; six week treatment,decreased appetite
same,"withdrawal Y-BOCS score, average, after withdrawal","[2]; 3 patients stopping tramadol hydrochloride without adding another agent, followed for two weeks",19.7
same,"withdrawal Y-BOCS score, average, at stopping","[2]; 3 patients stopping tramadol hydrochloride without adding another agent, start of withdrawal",14.3
same,adverse event leading to discontinuation,"[2]; another patient, during week 6",panic attack
same,Y-BOCS scores during treatment,[2]; [4],decreased
same,change in HAM-D scores,[2]; [4],no significant change
same,"Global Improvement CGI, mean ± SD, ENDPOINT","[2]; endpoint of six week treatment, six patients, baseline 5.2 ± 0.8, 2=much improved, 3=minimally improved, 4=no change",2.3 ± 1.0
same,"Severity of Illness CGI, mean ± SD, ENDPOINT","[2]; endpoint of six week treatment, six patients, baseline 5.3 ± 1.5, 4=moderately ill, 5=markedly ill, 6=severely ill",4.5 ± 1.2
same,"HAM-D, mean ± SD, ENDPOINT","[2]; endpoint of six week treatment, six patients, baseline 27.7 ± 15.9",28.8 ± 9.8
same,"urges or pressures to perform the compulsions, patient reported",[2]; obsessions persisted in a muted form,diminished
same,adverse event leading to discontinuation,"[2]; one patient, during week 1",nausea and exacerbation of trichotillomania
same,decrease in Y-BOCS scores within the first week,"[2]; three of the seven patients, rapid onset of response",greater than 6 point
same,compulsive urges after the first dose,"[2]; two individuals, first 50 mg dose",alleviation
same,time to reported decrease in obsessions and compulsions,OCD; 50 mg twice a day,≤ 24 h
same,Y-BOCS score,"OCD; after one week of treatment, score prior to treatment 26",19
same,Weight,"[3]; Month 3, 350 mg/day for 2 weeks, followed by 400 mg/day",127.0 lbs
same,Weight,"[3]; Month 4, 400 mg/day",124.5 lbs
same,Weight,"[3]; Month 5, 400 mg/day",124.75 lbs
same,Weight,"[3]; Month 6, 400 mg/day, alendronic acid started",124.5 lbs
same,Weight,"[3]; Month 7, 400 mg/day",127.0 lbs
same,Weight,"[3]; Month 8, 400 mg/day",125.0 lbs
same,Weight,"[3]; Month 9, 300 mg/day",128.0 lbs
same,Weight,"[3]; Month 10, 150 mg/day",127.5 lbs
same,Weight,"[3]; Month 11, 100 mg/day for 2 weeks, 50 mg/day for 1 week, then discontinued",131.5 lbs
same,Weight,"[3]; Week 2, 300 mg/day, baseline 129.5",128.25 lbs
same,Weight,"[3]; Week 3, 400 mg/day",127.0 lbs
same,Weight,"[3]; Week 4, 400 mg/day",127.25 lbs
same,Weight,"[3]; Week 6, 300 mg/day",126.0 lbs
same,Weight,"[3]; Week 7, 300 mg/day",126.3 lbs
same,Weight,"[3]; Week 8, 300 mg/day",126.0 lbs
same,weight after treatment was discontinued,[3]; after the tramadol hydrochloride treatment was discontinued,regained
same,effect on weight during treatment,[3]; during the tramadol hydrochloride treatment,lost weight
